Source: PubChem BioAssay (NCI)
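96-well plates; 48 h exposure; 5 concentrations. Endpoints by linear interpolation between flanking doses. Not reached: highest tested concentration assigned. TGI: concentration producing complete growth inhibition.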

Columns and labels:
Test in all cases: DTP human tumour cell line panel, 48 h
[1] = test system: 786-0 renal
[2] = test system: A498 renal
[3] = test system: A549 NSCLC
[4] = test system: ACHN renal
[5] = test system: CAKI-1 renal
[6] = test system: COLO 205 colon
[7] = test system: DU-145 prostate
[8] = test system: EKVX NSCLC
[9] = test system: HCC-2998 colon
[10] = test system: HCT-116 colon
[11] = test system: HCT-15 colon
[12] = test system: HOP-62 NSCLC
[13] = test system: HS 578T breast
[14] = test system: IGROV1 ovarian
[15] = test system: KM12 colon
[16] = test system: LOX IMVI melanoma
[17] = test system: M14 melanoma
[18] = test system: MALME-3M melanoma
[19] = test system: MCF7 breast
[20] = test system: MDA-MB-231 breast
[21] = test system: MDA-MB-435
[22] = test system: MDA-N
[23] = test system: MOLT-4 leukemia
[24] = test system: NCI-H226 lung
[25] = test system: NCI-H460 lung
[26] = test system: NCI-H522 lung
[27] = test system: NCI/ADR-RES ovarian
[28] = test system: OVCAR-3 ovarian
[29] = test system: OVCAR-4 ovarian
[30] = test system: OVCAR-5 ovarian
[31] = test system: OVCAR-8 ovarian
[32] = test system: PC-3 prostate
[33] = test system: RPMI-8226 leukemia
[34] = test system: RXF 393 renal
[35] = test system: SF-268 CNS
[36] = test system: SF-295 CNS
[37] = test system: SF-539 CNS
[38] = test system: SK-MEL-2 melanoma
[39] = test system: SK-MEL-28 melanoma
[40] = test system: SK-MEL-5 melanoma
[41] = test system: SK-OV-3 ovarian
[42] = test system: SN12C renal
[43] = test system: SNB-19 CNS
[44] = test system: SNB-75 CNS
[45] = test system: SR leukemia
[46] = test system: SW-620 colon
[47] = test system: T-47D breast
[48] = test system: TK-10 renal
[49] = test system: U251 CNS
[50] = test system: UACC-257 melanoma
[51] = test system: UACC-62 melanoma
[52] = test system: UO-31 renal
[53] = test system: BT-549 breast
[54] = test system: CCRF-CEM leukemia
[55] = test system: HT29 colon
[56] = test system: K-562 leukemia
[57] = test system: NCI-H23 lung

Measured: TGI

COC(=O)C1CC2CC1C1C2SC(F)(F)C1(F)F (stereo not given)
not listed: [53] | [54] | [55] | [56] | [57]
> 100 µM: all other assays above

COC(=O)C1(CCCCl)CCCN1C(=O)OC(C)(C)C (stereo not given)
not listed: [2] | [13] | [17] | [18] | [23] | [26] | [31] | [33] | [37]
> 100 µM: all other assays above
